# Laboratory results: US11339165B2, “Pyrazolopyrimidines having activity against the respiratory syncytial virus (RSV)” (priority 2017, dated 2022)
# Key:
# rgRSV224 virus = experiment: Antiviral activity: rgRSV224 (GFP) replication in HeLa cells; format: cell-based, respiratory syncytial virus (RSV); settings: human respiratory syncytial virus, HeLa, 72 h, read-out: RSV HELA EC50 (μM), rgRSV224 virus (MOI=1), HeLa cells, GFP expression three days post-virus exposure
# in vitro = settings: human, TOX HELA CC50 (μM)
# Description: Black 384-well clear-bottom microtiter plates (Corning, Amsterdam, The Netherlands) were filled via acoustic drop ejection using the echo liquid handler (Labcyte, Sunnyvale, Calif.). 200 nL of compound stock solutions (100% DMSO) were transferred to the assay plates. 9 serial 4-fold dilutions of compound were made, creating per quadrant the same compound concentration. The assay was initiated by adding 10 μL of culture medium to each well (RPMI medium without phenol red, 10% FBS-heat inactivated, 0.04% gentamycin (50 mg/mL). All addition steps are done by using a multidrop dispenser (Thermo Scientific, Erembodegem, Belgium). Next, rgRSV224 virus (MOI=1) diluted in culture medium was added to the plates. rgRSV224 virus is an engineered virus that includes an additional GFP gene (Hallak L K, Spillmann D, Collins P L, Peeples M E. Glycosaminoglycan sulfation requirements for respiratory syncytial virus infection; Journal of virology (2000), 74(22), 10508-13) and was in-licensed from the NIH (Bethesda, Md., USA). Finally, 20 μL of a HeLa cell suspension (3,000 cells/well) were plated. Medium, virus- and mock-infected controls were included in each test. The wells contain 0.05% DMSO per volume. Cells were incubated at 37° C. in a 5% CO2 atmosphere. Three days post-virus exposure, viral replication was quantified by measuring GFP expression in the cells by an in house developed MSM laser microscope (Tibotec, Beerse, Belgium). The EC50 was defined as the 50% inhibitory concentration for GFP expression. In parallel, compounds were incubated for three days in a set of white 384-well microtiter plates (Corning) and the cytotoxicity of compounds in HeLa cells was determined by measuring the ATP content of the cells using the ATPlite kit (Perkin Elmer, Zaventem, Belgium) according to the manufacturer's instructions. The CC50 was defined as the 50% concentration for cytotoxicity.
structure (smiles),measurement,setting,value
"CC(=O)N[C@@H]1CCN(c2ccc(-c3cc4nc(C(=O)N5CCc6ccccc6[C@H]5C)cc(C5CC5)n4n3)c(F)c2)C1 [Compound 7, N-[(3R)-1-(4-{7-Cyclopropyl-5-[(1R)-1-methyl-1,2,3,4-tetrahydroisoquinoline-2-carbonyl]pyrazolo[1,5-a]pyrimidin-2-yl}-3-fluorophenyl)pyrrolidin-3-yl]acetamide]",EC50,rgRSV224 virus,0.037 µM
same,melting point,,189 °C
same,CC50 at 3 days,in vitro,71.5 µM
"C[C@@H]1c2ccccc2CCN1C(=O)c1cc(C2CC2)n2nc(-c3ccc(N4CC[C@@H](NS(C)(=O)=O)C4)cc3F)cc2n1 [Compound 11, N-[(3R)-1-(4-{7-Cyclopropyl-5-[(1R)-1-methyl-1,2,3,4-tetrahydroisoquinoline-2-carbonyl]pyrazolo[1,5-a]pyrimidin-2-yl}-3-fluorophenyl)pyrrolidin-3-yl]methane-sulfonamide]",EC50,rgRSV224 virus,0.044 µM
same,melting point,,159.35 °C
same,CC50 at 3 days,in vitro,> 100 µM
"C[C@@H]1c2ccccc2CCN1C(=O)c1cc(C2CC2)n2nc(-c3ccc(N4CC[C@@H](S(C)(=O)=O)C4)cc3F)cc2n1 [Compound 17, (1R)-2-(7-Cyclopropyl-2-{2-fluoro-4-[(3R)-3-methanesulfonylpyrrolidin-1-yl]phenyl}-pyrazolo[1,5-a]pyrimidine-5-carbonyl)-1-methyl-1,2,3,4-tetrahydroisoquinoline]",EC50,rgRSV224 virus,0.05 µM
same,melting point,,258.48 °C
same,CC50 at 3 days,in vitro,> 100 µM
"C[C@@H]1c2ccccc2CCN1C(=O)c1cc(C2CC2)n2nc(-c3ccc(N4CCC(S(N)(=O)=O)C4)cc3F)cc2n1 (stereo partly drawn) [Compound 19, 1-(4-{7-Cyclopropyl-5-[(1R)-1-methyl-1,2,3,4-tetrahydroisoquinoline-2-carbonyl]-pyrazolo[1,5-a]pyrimidin-2-yl}-3-fluorophenyl)pyrrolidine-3-sulfonamide]",EC50,rgRSV224 virus,0.041 µM
same,melting point,,308.63 °C
same,CC50 at 3 days,in vitro,72.3 µM
"C[C@@H]1c2ccccc2CCN1C(=O)c1cc(C2CC2)n2nc(-c3ccc(N4CC[C@H](C(N)=O)C4)cc3F)cc2n1 [Compound 36, (3S)-1-(4-{7-Cyclopropyl-5-[(1R)-1-methyl-1,2,3,4-tetrahydroisoquinoline-2-carbonyl]pyrazolo[1,5-a]pyrimidin-2-yl}-3-fluorophenyl)pyrrolidine-3-carboxamide]",EC50,rgRSV224 virus,0.012 µM
same,melting point,,237.7 °C
same,CC50 at 3 days,in vitro,29.3 µM
"C[C@@H]1c2ccccc2CCN1C(=O)c1cc(C2CC2)n2nc(-c3ccc(N4CC[C@H](C(N)=O)C4)nc3F)cc2n1 [Compound 49, (3S)-1-(5-{7-Cyclopropyl-5-[(1R)-1-methyl-1,2,3,4-tetrahydroisoquinoline-2-carbonyl]-pyrazolo[1,5-a]pyrimidin-2-yl}-6-fluoropyridin-2-yl)pyrrolidine-3-carboxamide]",EC50,rgRSV224 virus,0.024 µM
same,melting point,,239.19 °C
same,CC50 at 3 days,in vitro,32.3 µM
"C[C@@H]1c2ccccc2CCN1C(=O)c1cc(C2CC2)n2nc(-c3cnc(N4CC[C@H](C(N)=O)C4)cc3F)cc2n1 [Compound 52, (3S)-1-(5-{7-Cyclopropyl-5-[(1R)-1-methyl-1,2,3,4-tetrahydroisoquinoline-2-carbonyl]-pyrazolo[1,5-a]pyrimidin-2-yl}-4-fluoropyridin-2-yl)pyrrolidine-3-carboxamide]",EC50,rgRSV224 virus,0.014 µM
same,melting point,,246.17 °C
same,CC50 at 3 days,in vitro,41.3 µM
"CNC(=O)[C@H]1CCN(c2cc(F)c(-c3cc4nc(C(=O)N5CCc6ccccc6[C@H]5C)cc(C5CC5)n4n3)cn2)C1 [Compound 53, (3S)-1-(5-{7-Cyclopropyl-5-[(1R)-1-methyl-1,2,3,4-tetrahydroisoquinoline-2-carbonyl]-pyrazolo[1,5-a]pyrimidin-2-yl}-4-fluoropyridin-2-yl)-N-methylpyrrolidine-3-carboxamide]",EC50,rgRSV224 virus,0.035 µM
same,melting point,,228.33 °C
same,CC50 at 3 days,in vitro,> 100 µM
"C[C@@H]1c2ccccc2CCN1C(=O)c1cc(C2CC2)n2nc(-c3cnc(N4CC[C@H](C(=O)NS(C)(=O)=O)C4)cc3F)cc2n1 [Compound 54, (3S)-1-(5-{7-Cyclopropyl-5-[(1R)-1-methyl-1,2,3,4-tetrahydroisoquinoline-2-carbonyl]-pyrazolo[1,5-a]pyrimidin-2-yl}-4-fluoropyridin-2-yl)-N-methanesulfonylpyrrolidine-3-carboxamide]",EC50,rgRSV224 virus,0.192 µM
same,melting point,,254.46 °C
same,CC50 at 3 days,in vitro,77.4 µM
"C[C@@H]1c2ccccc2CCN1C(=O)c1cc(C2CC2)n2nc(-c3cc(F)c(N4CC[C@H](C(N)=O)C4)cc3F)cc2n1 [Compound 55, (3S)-1-(4-{7-Cyclopropyl-5-[(1R)-1-methyl-1,2,3,4-tetrahydroisoquinoline-2-carbonyl]-pyrazolo[1,5-a]pyrimidin-2-yl}-2,5-difluorophenyl)pyrrolidine-3-carboxamide]",EC50,rgRSV224 virus,0.016 µM
same,melting point,,253.3 °C
same,CC50 at 3 days,in vitro,> 100 µM
"COc1ccc(-c2cc(C(=O)N3CCc4ccccc4[C@H]3C)nc3cc(-c4ccc(N5CC[C@H](C(N)=O)C5)cc4F)nn23)cc1 [Compound 57, (3S)-1-{3-Fluoro-4-[7-(4-methoxyphenyl)-5-[(1R)-1-methyl-1,2,3,4-tetrahydro-isoquinoline-2-carbonyl]pyrazolo[1,5-a]pyrimidin-2-yl]phenyl}pyrrolidine-3-carboxamide]",EC50,rgRSV224 virus,0.023 µM
same,melting point,,216.34 °C
same,CC50 at 3 days,in vitro,> 100 µM
"C[C@@H]1c2ccccc2CCN1C(=O)c1cc(-c2ccc(C#N)cc2)n2nc(-c3ccc(N4CC[C@H](C(N)=O)C4)cc3F)cc2n1 [Compound 62, (3S)-1-{4-[7-(4-Cyanophenyl)-5-[(1R)-1-methyl-1,2,3,4-tetrahydroisoquinoline-2-carbonyl]pyrazolo[1,5-a]pyrimidin-2-yl]-3-fluorophenyl}pyrrolidine-3-carboxamide]",EC50,rgRSV224 virus,0.043 µM
same,melting point,,173.36 °C
same,CC50 at 3 days,in vitro,> 100 µM
"C[C@@H]1c2ccccc2CCN1C(=O)c1cc(C2CC2)n2nc(-c3ccc(N4CC(CC(N)=O)C4)cc3F)cc2n1 [Compound 65, 2-[1-(4-{7-Cyclopropyl-5-[(1R)-1-methyl-1,2,3,4-tetrahydroisoquinoline-2-carbonyl]-pyrazolo[1,5-a]pyrimidin-2-yl}-3-fluorophenyl)azetidin-3-yl]acetamide]",EC50,rgRSV224 virus,0.048 µM
same,melting point,,211.64 °C
same,CC50 at 3 days,in vitro,39.1 µM
"CNC(=O)CC1CN(c2ccc(-c3cc4nc(C(=O)N5CCc6ccccc6[C@H]5C)cc(C5CC5)n4n3)c(F)c2)C1 [Compound 66, 2-[1-(4-{7-Cyclopropyl-5-[(1R)-1-methyl-1,2,3,4-tetrahydroisoquinoline-2-carbonyl]-pyrazolo[1,5-a]pyrimidin-2-yl}-3-fluorophenyl)azetidin-3-yl]-N-methylacetamide]",EC50,rgRSV224 virus,0.04 µM
same,melting point,,143.13 °C
same,CC50 at 3 days,in vitro,36.4 µM
"C[C@@H]1c2ccccc2CCN1C(=O)c1cc(C2CC2)n2nc(-c3ccc(N4CC(O)C4)cc3F)cc2n1 [Compound 67, 1-(4-{7-Cyclopropyl-5-[(1R)-1-methyl-1,2,3,4-tetrahydroisoquinoline-2-carbonyl]-pyrazolo[1,5-a]pyrimidin-2-yl}-3-fluorophenyl)azetidin-3-ol]",EC50,rgRSV224 virus,0.03 µM
same,melting point,,205.81 °C
same,CC50 at 3 days,in vitro,36.5 µM
"CNC(=O)C1CCN(c2ccc(-c3cc4nc(C(=O)N5CCc6ccccc6[C@H]5C)cc(C5CC5)n4n3)c(F)c2)CC1 [Compound 72, 1-(4-{7-Cyclopropyl-5-[(1R)-1-methyl-1,2,3,4-tetrahydroisoquinoline-2-carbonyl]-pyrazolo[1,5-a]pyrimidin-2-yl}-3-fluorophenyl)-N-methylpiperidine-4-carboxamide]",EC50,rgRSV224 virus,0.087 µM
same,melting point,,252.4 °C
same,CC50 at 3 days,in vitro,> 100 µM
"C[C@@H]1c2ccccc2CCN1C(=O)c1cc(C2CC2)n2nc(-c3ccc(N4CCC(O)CC4)cc3F)cc2n1 [Compound 74, 1-(4-{7-Cyclopropyl-5-[(1R)-1-methyl-1,2,3,4-tetrahydroisoquinoline-2-carbonyl]-pyrazolo[1,5-a]pyrimidin-2-yl}-3-fluorophenyl)piperidin-4-ol]",EC50,rgRSV224 virus,0.076 µM
same,melting point,,144.01 °C
same,CC50 at 3 days,in vitro,48.1 µM
"C[C@@H]1c2ccccc2CCN1C(=O)c1cc(C2CC2)n2nc(-c3ccc(N4CCCC(O)C4)cc3F)cc2n1 (stereo partly drawn) [Compound 75, 1-(4-{7-Cyclopropyl-5-[(1R)-1-methyl-1,2,3,4-tetrahydroisoquinoline-2-carbonyl]-pyrazolo[1,5-a]pyrimidin-2-yl}-3-fluorophenyl)piperidin-3-ol]",EC50,rgRSV224 virus,0.076 µM
same,melting point,,197.51 °C
same,CC50 at 3 days,in vitro,> 100 µM
"C[C@@H]1c2ccccc2CCN1C(=O)c1cc(C2CC2)n2nc(-c3ccc(N4CC[C@H](NC(=O)C(F)(F)F)C4)cc3F)cc2n1 [Compound 76, N-[(3S)-1-(4-{7-Cyclopropyl-5-[(1R)-1-methyl-1,2,3,4-tetrahydroisoquinoline-2-carbonyl]pyrazolo[1,5-a]pyrimidin-2-yl}-3-fluorophenyl)pyrrolidin-3-yl]-2,2,2-trifluoroacetamide]",EC50,rgRSV224 virus,0.246 µM
same,melting point,,221.2 °C
same,CC50 at 3 days,in vitro,> 100 µM
"C[C@@H]1c2ccccc2CCN1C(=O)c1cc(C2CC2)n2nc(-c3ccc(N4CC[C@@H](S(C)(=N)=O)C4)cc3F)cc2n1 (stereo partly drawn) [Compound 79, [(3R)-1-(4-{7-Cyclopropyl-5-[(1R)-1-methyl-1,2,3,4-tetrahydroisoquinoline-2-carbonyl]-pyrazolo[1,5-a]pyrimidin-2-yl}-3-fluorophenyl)pyrrolidin-3-yl](imino)methyl-λ^6-sulfanone]",EC50,rgRSV224 virus,0.476 µM
same,melting point,,285.54 °C
same,CC50 at 3 days,in vitro,13.3 µM
"C[C@@H]1c2ccccc2CCN1C(=O)c1cc(-c2ccccn2)n2nc(-c3ccc(N4CC[C@H](C(N)=O)C4)cc3F)cc2n1 [Compound 84, (3S)-1-(3-Fluoro-4-{5-[(1R)-1-methyl-1,2,3,4-tetrahydroisoquinoline-2-carbonyl]-7-(pyridin-2-yl)pyrazolo[1,5-a]pyrimidin-2-yl}phenyl)pyrrolidine-3-carboxamide]",EC50,rgRSV224 virus,0.006 µM
same,melting point,,252.18 °C
same,CC50 at 3 days,in vitro,19 µM
